# Counter-ions that a name gives are not always drawn. Positions of bridges follow the written chain, without caps; N, C: chain ends. Non-standard residues stand in square brackets, D forms with d. Residues, ends and D or L forms follow the SMILES beside them. Phe(4-F) = N[C@@H](Cc1ccc(F)cc1)C(=O)O; Dmt = Cc1cc(O)cc(C)c1C[C@H](N)C(=O)O; NMeCha = CN[C@@H](CC1CCCCC1)C(=O)O; NMeF = CN[C@@H](Cc1ccccc1)C(=O)O; 2Thi = N[C@@H](Cc1cccs1)C(=O)O; Cha = N[C@@H](CC1CCCCC1)C(=O)O; dPen = CC(C)(S)[C@@H](N)C(=O)O
# What was measured:
# [1] = test system: CD Charles River mice; test: Writhing Assay (PBQ-induced writhing); type: in vivo, mouse; conditions: for number of mice out of ten in which peptide was active, Intragastric: 10 mg/kg i.g., PBQ i.p. 15 min after dosing; for number of mice out of ten in which peptide was active, Subcutaneous: 10 mg/kg s.c., PBQ i.p. 25 min after dosing
# Text: The "Writhing Assay" is one of the most widely-used experimental procedures for measuring the analgesic activity of different narcotic and nonnarcotic analgesic agents, and involves the continuous, chemically-induced pain of visceral origin to an animal, such as a mouse or rat. [Gyires et al., Arch. int. Pharmacodyn, 267, 131-140 (1984); C. Vander Wende et al., Fed. Proc., 15, 494 (1956); Koster et al., Fed. Proc., 18, 412 (1959); and Witken et al., J. Pharmacol. Exp. Ther., 133, 400-408 (1961). ] Chemicals which may be used to induce this pain include phenylbenzoquinone (PBQ) and acetic acid. As a result of the chemical irritation to the animal, a characteristic stretching and writhing of the animal (dorsiflexion of the animal's back, extension of its hindlimbs an the strong contraction of its abdominal musculature) will generally occur. […] Drugs which reduce the number of writhes of the animal appear to restore the normal nociceptive threshold of the animal.
# This assay was conducted generally in the manner described by R. I. Taber, "Predictive Value of Analgesic Assays in Mice and Rats,"Advances in Biochemical Psychopharmacology, 8, 191 (1974). The Methyl Ester Tetrapeptide and Test Tetrapeptides Nos. 1, 3, 4, 5, 6, 7, 8 and 9 were tested in this assay.
# Two hundred CD Charles River mice, weighing 20 to 30 grams were used in this assay.
# Twenty-five minutes after subcutaneous administration, and fifteen minutes after intragastric administration, to the mice of 10 mg per kilogram of body weight of either a Test Tetrapeptide or the Methyl Ester Tetrapeptide, […] of body weight of a 0.025% w/v solution of PBQ was injected intraperitoneally into each mouse. Some mice were given saline in place of a Test Tetrapeptide or the Methyl Ester Tetrapeptide, and were used as a control group.
# Five minutes later, each mouse was individually placed into a glass beaker for observation, and the number of writhes occurring during the following ten-minute period was counted.
# A tetrapeptide compound was considered to be "active" (to have produced analgesia in a mouse) if, in accordance with the conditions set forth above, and under the test criteria employed for this assay, after the administration of 10 mg per kilogram of body weight of the tetrapeptide to the mouse, the number of writhes elicited by a mouse injected with PBQ was equal to, or less than, one-half the median number of writhes recorded for the saline-treated control group of mice that day, as described by R. I. Taber, supra.
# The standard initial screening dose of a compound employed in this assay was 10 mg per kilogram (mpk) of body weight for both routes of administration. If this initial screening dose of the tetrapeptide produced analgesia in seven of ten mice, then the effect of additional doses of the tetrapeptide on the writhing response was evaluated, and then the ED50 value (that dose of a Test Tetrapeptide or the Methyl Ester Tetrapeptide which produced analgesia in 50% of the mice to which the tetrapeptide was administered) was generally calculated. A maximum likelihood function was used to determine the ED50 value. (The slopes of the dose-response curves for all tetrapeptides analyzed were compared as described by Tallarida and Murray, Manual of Pharmacologic Calculations, Page 11 (Springer Verlag, N.Y., 1981)).
# [2] = biological target: δ opioid receptors (Rattus norvegicus, UniProt P33533); test: Opiate Binding Assay, displacement of 3[H]-DSLET; conditions: ratio of mean IC50 μ to δ, above 1.0 = more specific for δ
# δ opioid receptors, sequence (P33533 whole entry): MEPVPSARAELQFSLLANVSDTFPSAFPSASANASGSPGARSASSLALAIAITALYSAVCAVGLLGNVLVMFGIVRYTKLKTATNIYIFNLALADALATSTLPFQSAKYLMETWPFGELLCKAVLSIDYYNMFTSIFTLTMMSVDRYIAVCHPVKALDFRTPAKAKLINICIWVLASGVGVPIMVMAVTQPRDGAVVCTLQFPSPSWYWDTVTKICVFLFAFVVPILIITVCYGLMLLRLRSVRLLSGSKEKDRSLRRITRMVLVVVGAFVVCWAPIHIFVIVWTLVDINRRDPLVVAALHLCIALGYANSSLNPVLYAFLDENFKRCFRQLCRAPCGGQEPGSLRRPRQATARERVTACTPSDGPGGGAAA
smiles,measurement,setting,value
"COC(=O)[C@@H]1NC(=O)[C@H](Cc2ccccc2)NC(=O)C(NC(=O)[C@@H](N)Cc2c(C)cc(O)cc2C)CCSSC1(C)C (single isomer, unassigned) [Example 72, 2,6-dimethyl-L-tyrosylhomocysteinyl-L-phenylalanyl-3-mercapto-D-valine, cyclic (2→4)-disulfide, methyl ester, monohydrochloride]","number of mice out of ten in which peptide was active, Intragastric","[1]; listed as Test Tetrapeptide No. 4, monohydrochloride, 10 mg/kg",1/10
same,"number of mice out of ten in which peptide was active, Subcutaneous",[1],6/10
same,Mean IC50 Value μ/δ Ratio,[2]; monohydrochloride,0.4
"COC(=O)[C@@H]1NC(=O)[C@H](CC2CCCCC2)NC(=O)[C@H](NC(=O)[C@@H](N)Cc2c(C)cc(O)cc2C)CSSC1(C)C [Example 46, 2,6-dimethyl-L-tyrosyl-D-cysteinyl-3-cyclohexyl-L-alanyl-3-mercapto-D-valine, cyclic (2→4)-disulfide, methyl ester, monohydrochloride] (H-[Dmt][dC][Cha][dPen]-OMe; disulfide 2-4)","number of mice out of ten in which peptide was active, Intragastric",[1],4/10
same,"number of mice out of ten in which peptide was active, Subcutaneous",[1],5/10
same,Mean IC50 Value μ/δ Ratio,[2],0.6
"Cc1cc(O)ccc1CC(N)C(=O)N[C@@H]1CSSC(C)(C)[C@H](C(=O)O)NC(=O)[C@H](Cc2ccccc2)NC1=O (single isomer, unassigned) [Example 5 (Diastereomer B)]",Mean IC50 Value μ/δ Ratio,[2],15
"COC(=O)[C@@H]1NC(=O)[C@H](Cc2cccs2)NC(=O)[C@H](NC(=O)[C@@H](N)Cc2c(C)cc(O)cc2C)CSSC1(C)C [Example 60, 2,6-dimethyl-L-tyrosyl-D-cysteinyl-3-(2-thienyl)-L-alanyl-3-mercapto-D-valine, cyclic (2→4)-disulfide, methyl ester, monohydrochloride] (H-[Dmt][dC][2Thi][dPen]-OMe; disulfide 2-4)",Mean IC50 Value μ/δ Ratio,[2],1.4
"Cc1ccc(CC(N)C(=O)N[C@@H]2CSSC(C)(C)[C@H](C(=O)O)NC(=O)[C@H](Cc3ccccc3)NC2=O)c(C)c1O (single isomer, unassigned) [Example 81 (Diastereomer B), 3-hydroxy-2,4-dimethylphenylalanyl-D-cysteinyl-L-phenylalanyl-3-mercapto-D-valine, cyclic (2→4)-disulfide, monohydrochloride]",Mean IC50 Value μ/δ Ratio,[2]; monohydrochloride,19
"Cc1cc(O)c(C)c(C)c1CC(N)C(=O)N[C@@H]1CSSC(C)(C)[C@H](C(=O)O)NC(=O)[C@H](Cc2ccccc2)NC1=O (single isomer, unassigned) [Example 82 (Diastereomer B), 2,3,6-trimethyltyrosyl-D-cysteinyl-L-phenylalanyl-3-mercapto-D-valine, cyclic (2→4)-disulfide, monohydrochloride]",Mean IC50 Value μ/δ Ratio,[2],81
"COC(=O)[C@@H]1NC(=O)[C@H](Cc2ccccc2)NC(=O)C(NC(=O)[C@@H](N)Cc2c(C)cc(O)cc2C)CCSSC1(C)C (single isomer, unassigned) [Example 73, 2,6-dimethyl-L-tyrosylhomocysteinyl-L-phenylalanyl-3-mercapto-D-valine, cyclic (2→4)-disulfide, methyl ester, monohydrochloride]","number of mice out of ten in which peptide was active, Intragastric","[1]; listed as Test Tetrapeptide No. 5, monohydrochloride, 10 mg/kg",5/10
same,"number of mice out of ten in which peptide was active, Subcutaneous",[1],6/10
same,Mean IC50 Value μ/δ Ratio,[2]; monohydrochloride,0.10
"COC(=O)[C@@H]1NC(=O)[C@H](Cc2ccc(F)cc2)NC(=O)[C@H](NC(=O)[C@@H](N)Cc2c(C)cc(O)cc2C)CSSC1(C)C [Example 67, 2,6-dimethyl-L-tyrosyl-D-cysteinyl-4-fluoro-L-phenylalanyl-3-mercapto-D-valine, cyclic (2→4)-disulfide, methyl ester, monohydrochloride] (H-[Dmt][dC][Phe(4-F)][dPen]-OMe; disulfide 2-4)","number of mice out of ten in which peptide was active, Intragastric",[1],1/10
same,"number of mice out of ten in which peptide was active, Subcutaneous",[1],2/10
same,Mean IC50 Value μ/δ Ratio,[2],2.4
"COC(=O)[C@@H]1NC(=O)[C@H](Cc2ccccc2)N(C)C(=O)[C@H](NC(=O)[C@@H](N)Cc2c(C)cc(O)cc2C)CSSC1(C)C [Example 39, 2,6-dimethyl-L-tyrosyl-D-cysteinyl-N-methyl-L-phenylalanyl-3-mercapto-D-valine, cyclic (2→4)-disulfide, methyl ester, monohydrochloride] (H-[Dmt][dC][NMeF][dPen]-OMe; disulfide 2-4)","number of mice out of ten in which peptide was active, Intragastric",[1],5/10
same,"number of mice out of ten in which peptide was active, Subcutaneous",[1],4/10
same,Mean IC50 Value μ/δ Ratio,[2],6.0
"COC(=O)[C@@H]1NC(=O)[C@H](CC2CCCCC2)N(C)C(=O)[C@H](NC(=O)[C@@H](N)Cc2c(C)cc(O)cc2C)CSSC1(C)C [Example 53, 2,6-dimethyl-L-tyrosyl-D-cysteinyl-3-cyclohexyl-N-methyl-L-alanyl-3-mercapto-D-valine, cyclic (2→4)-disulfide, methyl ester, monohydrochloride] (H-[Dmt][dC][NMeCha][dPen]-OMe; disulfide 2-4)","number of mice out of ten in which peptide was active, Intragastric",[1],3/10
same,"number of mice out of ten in which peptide was active, Subcutaneous",[1],3/10
same,Mean IC50 Value μ/δ Ratio,[2],12
"Cc1cc(O)ccc1CC(N)C(=O)N[C@@H]1CSSC(C)(C)[C@H](C(=O)O)NC(=O)[C@H](Cc2ccccc2)NC1=O (single isomer, unassigned) [Example 5 (Diastereomer A)]",Mean IC50 Value μ/δ Ratio,[2],48
"Cc1ccc(CC(N)C(=O)N[C@@H]2CSSC(C)(C)[C@H](C(=O)O)NC(=O)[C@H](Cc3ccccc3)NC2=O)c(C)c1O (single isomer, unassigned) [Example 81 (Diastereomer A), 3-hydroxy-2,4-dimethylphenylalanyl-D-cysteinyl-L-phenylalanyl-3-mercapto-D-valine, cyclic (2→4)-disulfide, monohydrochloride]",Mean IC50 Value μ/δ Ratio,[2]; monohydrochloride,0.1

# From patent publication US5216124A, “Substituted cyclic tetrapeptides” (G. D. Searle & Co., priority 1991, dated 1993)
